No end group written: not given here.
Legend:
Pseudomonas corrugata [1] = experiment: MIC and lethal concentration (Example 3); assay type: cell-based; details: Table 2; for MIC (>90% inhibition): 1-2 days at 25° C.; for LC, lethal concentration (100% inhibition): at least 4 days of incubation
Method: (§1) In-vitro inhibition assays were performed in sterile flat-bottom 96-well plates (Greiner bio-one, Frickenhausen). Antimicrobial peptides were dissolved in 0.01% acetic acid containing 0.2% BSA (500 μg/ml), filter sterilized and stored at −20° C. For inhibition assays dilutions of peptides ranging from 5 to 200 μg/ml were prepared and 10 μl (antibacterial assay) or 20 μl (antifungal assay) of each concentration was loaded per well.
(§2) Bacteria colonies from overnight agar plate cultures were resuspended into 5 ml LB-medium or HPG-medium (OD600 nm=0.08-0.1) and diluted into LB-medium/HPG-medium (1:100). 90 μl of this suspension containing about 10^5-10^6 CFU/ml of tested bacteria were added to each well resulting in final peptide concentrations of 0, 0.5, 1, 2, 5, 10, and 20 μg/ml. […] The lowest concentration, in which there is no observable growth (>90% inhibition) is referred to as minimal inhibitory concentration (MIC). […] For each peptide concentration two identical inhibition assays were performed.

[2] = system: Clavibacter michiganensis; experiment: MIC and lethal concentration (Example 3); assay type: cell-based; details: Table 2; for MIC (>90% inhibition): 1-2 days at 25° C.; for LC, lethal concentration (100% inhibition): at least 4 days of incubation
Method: as §1, §2

[3] = system: Pectobacterium carotovorum; experiment: MIC and lethal concentration (Example 3); assay type: cell-based; details: Table 2; for MIC (>90% inhibition): 1-2 days at 25° C.; for LC, lethal concentration (100% inhibition): at least 4 days of incubation
Method: as §1, §2

Xanthomonas vesicatoria [4] = experiment: MIC and lethal concentration (Example 3); assay type: cell-based; details: Table 2; for MIC (>90% inhibition): 1-2 days at 25° C.; for LC, lethal concentration (100% inhibition): at least 4 days of incubation
Method: as §1, §2

[5] = system: Pseudomonas syringae pv. syringae; experiment: MIC and lethal concentration (Example 3); assay type: cell-based; details: Table 2; for MIC (>90% inhibition): 1-2 days at 25° C.; for LC, lethal concentration (100% inhibition): at least 4 days of incubation
Method: as §1, §2

[6] = system: Pseudomonas syringae pv. tomato; experiment: MIC and lethal concentration (Example 3); assay type: cell-based; details: Table 2; for MIC (>90% inhibition): 1-2 days at 25° C.; for LC, lethal concentration (100% inhibition): at least 4 days of incubation
Method: as §1, §2

[7] = system: Pectobacterium carotovorum sub. carotovorum; details: Pectobacterium carotovorum sub. carotovorum; overnight 25° C.; Table 1
human erythrocytes = experiment: Hemolytic activity, hemoglobin release; assay type: cell-based; details: 45 min at 37° C., Table 3
Method: The hemolytic activity of the peptides was evaluated by determining hemoglobin release of suspensions of fresh human erythrocytes at 405 nm. Human red blood cells were centrifuged and washed three times with Tris-buffer (10 mM Tris, 150 mM NaCl, pH 7.4). Eighty μl of human red blood cells (1.5×10^9/ml) were added to 20 μl of the peptides solution (peptides dissolved in 0.2% BSA, 0.01% HAc) in 96-well plates (Greiner bio-one, Frickenhausen) and incubated for 45 min at 37° C. The endconcentration of the peptides were 0, 20, 50, 100 and 200 μg/ml. After centrifugation (1500×g, 5 min, 20° C.) 30 μl aliquots of the supernatant were transferred to 96-well plates containing 100 μl water. Hemolysis was measured by absorbance at 405 nm with a microplate reader. 100% hemolysis were determined in 2% SDS. The hemolysis percentage was calculated using the following equation: % hemolysis=[(Abs405 nm in the peptide solution−Abs405 nm in peptides solvent)/(Abs405 nm in 2% SDS−Abs405 nm in peptide solvent)]×100.
Further hemolytic activities of the various peptides of the present invention may be taken from the table depicted in example 3, last row indicated as “Hemolytic activity”. In connection therewith, however, the concentrations are stated where at least 50% hemolysis was observed.

Cladosporium herbarum = experiment: MIC, antifungal in-vitro inhibition assay (Example 2); assay type: cell-based; details: Table 1
Method: as §1
(§3) Spores of fungi were collected by water washes of sporulating cultures grown on 2% malt extract agar and spore concentration was determined by microscopy. The concentration of the spores was adjusted to 1.5-2×10^3 spores/ml in 2% malt extract medium and 80 μl of fungal spores were added per well. The final peptide concentrations used in the fungal inhibition assays were […]. After overnight incubation at room temperature the plate were put on a rotary shaker (300 rpm) for further two days to ensure consistantly growth. Antifungal effects of the peptides were determined by a microplate reader (Alternaria, Fusarium) at OD590 nm or by visual screening of the plates (Botrytis, Cladosporium).
(§4) The lowest peptide concentration leading to complete inhibition of bacterial growth or spore germination/mycelial growth (minimal inhibition concentration, MIC) was determined for each organism-peptide combination. For each peptide concentration two identical inhibition assays were performed.

Alternaria alternata = experiment: as above; assay type: cell-based; details: Table 1
Method: as §1, §3, §4

Botrytis cinerea = experiment: as above; assay type: cell-based; details: Table 1
Method: as §1, §3, §4

[8] = system: Pseudomonas syringae pv. tomato; details: Pseudomonas syringae pv. tomato; overnight 25° C.; Table 1
Pseudomonas corrugata [9] = details: Pseudomonas corrugata; overnight 25° C.; Table 1
[10] = system: Pseudomonas syringae pv. syringae; details: Pseudomonas syringae pv. syringae; overnight 25° C.; Table 1
Xanthomonas vesicatoria [11] = details: Xanthomonas vesicatoria; overnight 25° C.; Table 1
[12] = system: Clavibacter michiganensis sub. michiganensis; details: overnight 25° C., Table 1

Row | Substance | MIC (>90% inhibition) (Pseudomonas corrugata [1]) | LC, lethal concentration (100% inhibition) (Pseudomonas corrugata [1]) | MIC (>90% inhibition) [2] | LC, lethal concentration (100% inhibition) [2] | MIC (>90% inhibition) [3] | LC, lethal concentration (100% inhibition) [3] | MIC (>90% inhibition) (Xanthomonas vesicatoria [4]) | LC, lethal concentration (100% inhibition) (Xanthomonas vesicatoria [4]) | MIC (>90% inhibition) [5] | LC, lethal concentration (100% inhibition) [5] | MIC (>90% inhibition) [6] | LC, lethal concentration (100% inhibition) [6] | further results
1 | LRFIKKILKKLI-NH2 [SP10-4] | 2.5/2.5 μg/ml | 2.5/2.5 μg/ml | 0.25/0.25 μg/ml | 0.25/0.25 μg/ml | 2.5/2.5 μg/ml | 2.5/2.5 μg/ml | 0.1 µg/mL | 0.25 µg/mL | 0.25 µg/mL | 0.5 µg/mL | 1.0/1.0 μg/ml | 1.0/1.0 μg/ml | –
2 | LRFARRALRRLF-NH2 [SP10-9] | 0.5 µg/mL | 2.5 µg/mL | 1.0/1.0 μg/ml | 1.0/1.0 μg/ml | 2.5 µg/mL | 5.0 µg/mL | 1.0 µg/mL | 2.5 µg/mL | 0.25 µg/mL | 2.5 µg/mL | 0.25 µg/mL | 0.5 µg/mL | –
3 | LRIIKKILKKLI-NH2 [SP10-5] | 0.5 µg/mL | 2.5 µg/mL | 0.5/0.5 μg/ml | 0.5/0.5 μg/ml | 2.5 µg/mL | 10 µg/mL | 0.25 µg/mL | 0.5 µg/mL | 0.5/0.5 μg/ml | 0.5/0.5 μg/ml | 0.25 µg/mL | 0.5 µg/mL | –
4 | LRFLKKILKHLF (also: D-amino acids incorporated, places not given here) [SP10-D] | – | – | – | – | – | – | – | – | – | – | – | – | Minimal inhibition concentration (MIC) for complete inhibition of bacterial growth [7]: >40 mg/L; Hemolytic activity, concentration where at least 25% hemolysis was observed (human erythrocytes): >200 µg/mL; Minimal inhibition concentration (MIC) for complete inhibition of spore germination/mycelial growth (Cladosporium herbarum): 5 mg/L; Minimal inhibition concentration (MIC) for complete inhibition of spore germination/mycelial growth (Alternaria alternata): 5 mg/L; Minimal inhibition concentration (MIC) for complete inhibition of spore germination/mycelial growth (Botrytis cinerea): 10 mg/L; Minimal inhibition concentration (MIC) for complete inhibition of bacterial growth [8]: 0.5 mg/L; Minimal inhibition concentration (MIC) for complete inhibition of bacterial growth (Pseudomonas corrugata [9]): 2.5 mg/L; Minimal inhibition concentration (MIC) for complete inhibition of bacterial growth [10]: 2.5 mg/L; Minimal inhibition concentration (MIC) for complete inhibition of bacterial growth (Xanthomonas vesicatoria [11]): 2 mg/L; Minimal inhibition concentration (MIC) for complete inhibition of bacterial growth [12]: 5 mg/L
5 | LRIIRRILRRLI-NH2 [SP10-6] | 2.5/2.5 μg/ml | 2.5/2.5 μg/ml | 2.5/2.5 μg/ml | 2.5/2.5 μg/ml | 2.5 µg/mL | 5.0 µg/mL | 1.0/1.0 μg/ml | 1.0/1.0 μg/ml | 2.5/2.5 μg/ml | 2.5/2.5 μg/ml | 1.0/1.0 μg/ml | 1.0/1.0 μg/ml | –
6 | LKALRKALKHLA-NH2 [SP12, LKALRKALKHLA -NH2] | – | – | – | – | – | – | – | – | – | – | – | – | Minimal inhibition concentration (MIC) for complete inhibition of bacterial growth [7]: >40 mg/L; Hemolytic activity, concentration where at least 25% hemolysis was observed (human erythrocytes): >200 µg/mL; Minimal inhibition concentration (MIC) for complete inhibition of spore germination/mycelial growth (Cladosporium herbarum): 20 mg/L; Minimal inhibition concentration (MIC) for complete inhibition of spore germination/mycelial growth (Alternaria alternata): >100 mg/L; Minimal inhibition concentration (MIC) for complete inhibition of spore germination/mycelial growth (Botrytis cinerea): >100 mg/L; Minimal inhibition concentration (MIC) for complete inhibition of bacterial growth [8]: 2.5 mg/L; Minimal inhibition concentration (MIC) for complete inhibition of bacterial growth (Pseudomonas corrugata [9]): >40 mg/L; Minimal inhibition concentration (MIC) for complete inhibition of bacterial growth [10]: 10 mg/L; Minimal inhibition concentration (MIC) for complete inhibition of bacterial growth (Xanthomonas vesicatoria [11]): 20 mg/L; Minimal inhibition concentration (MIC) for complete inhibition of bacterial growth [12]: >40 mg/L
7 | LRILRRLLRRLF-NH2 [SP10-7] | 2.5/2.5 μg/ml | 2.5/2.5 μg/ml | 5.0/5.0 μg/ml | 5.0/5.0 μg/ml | >10/>10 μg/ml | >10/>10 μg/ml | 5.0s/5.0^ μg/ml | 5.0s/5.0^ μg/ml | >10/>10 μg/ml | >10/>10 μg/ml | 0.5 µg/mL | 1.0 µg/mL | –
8 | LRFLKKILKKLF-NH2 [SP10-1] | 2.5/2.5 μg/ml | 2.5/2.5 μg/ml | 1.0 µg/mL | 2.5 µg/mL | 2.5 µg/mL | 5.0 µg/mL | 2.5/2.5 μg/ml | 2.5/2.5 μg/ml | 2.5/2.5 μg/ml | 2.5/2.5 μg/ml | 1.0/1.0 μg/ml | 1.0/1.0 μg/ml | –
9 | LRALAKALKHKL-NH2 [SP11, LRALAKALKHKL -NH2] | – | – | – | – | – | – | – | – | – | – | – | – | Minimal inhibition concentration (MIC) for complete inhibition of spore germination/mycelial growth (Cladosporium herbarum): 20 mg/L; Minimal inhibition concentration (MIC) for complete inhibition of spore germination/mycelial growth (Alternaria alternata): >100 mg/L; Minimal inhibition concentration (MIC) for complete inhibition of spore germination/mycelial growth (Botrytis cinerea): >100 mg/L
10 | LRFLRRILRRLL-NH2 [SP10-8] | 0.5 µg/mL | 1.0 µg/mL | 0.5/0.5 μg/ml | 0.5/0.5 μg/ml | 2.5 µg/mL | 5.0 µg/mL | 0.5/0.5 μg/ml | 0.5/0.5 μg/ml | 0.5/0.5 μg/ml | 0.5/0.5 μg/ml | 1.0/1.0 μg/ml | 1.0/1.0 μg/ml | –
11 | LRFAKKALKKLF-NH2 [SP10-3] | 1.0 µg/mL | – | 2.5/2.5 μg/ml | 2.5/2.5 μg/ml | >10/>10 μg/ml | >10/>10 μg/ml | 2.5/2.5 μg/ml | 2.5/2.5 μg/ml | 0.25 µg/mL | 2.5 µg/mL | 0.25/0.25 μg/ml | 0.25/0.25 μg/ml | –
